Data published in patent publication US9085570B2, “Substituted benzamides and their uses” (The Board of Trustees of the Leland Stanford Junior …, priority 2010, dated 2015).

Key:
[1] = tested on: RCC4 with VHL-reintroduced (RCC4/VHL); assay: XTT cell viability assay in RCC4/VHL cells, selectivity ratio versus RCC4; format: cell-based; conditions: Ratio = IC50RCC4/VHL/IC50RCC4
Method: (§1) Cell Culture. RCC4 parental and RCC4 with VHL-reintroduced (RCC4/VHL), SN12C and SN12C-CSCG-VHL shRNA were maintained in DMEM supplemented with 10% FCS.
(§2) Cell Viability Assays. For 2,3-bis[2-methoxy-4-nitro-5-sulfophenyl]-2H-tetrazolium-5-carboxanilide (XTT) assays, five thousand cells were plated in 96-well plates. The next day, vehicle (DMSO) or drug was added by serial dilution. Four days later, media were aspirated, XTT solution (0.3 mg/ml of XTT (Sigma), […] N-methyl dibenxopyrazine methyl sulfate (Simga) in phenol red-free media) was added, and the plates were incubated at 37° C. for 1-2 hours. Metabolism of XTT was quantified by measuring the absorbance at 450 nm IC50s were calculated using linear interpolation. For clonogenic survival assays, three hundred cells were plated per 60 mm tissue culture dish. The cells were allowed to attach overnight and then treated with vehicle or drug for 14 days. Colonies were fixed and stained with crystal violet (0.1% crystal violet in 95% ethanol). All conditions were measured in triplicate and each experiment was done in duplicate or triplicate. To determine necrosis, cells were treated with drug for a given time point. Media and cells were collected, centrifugated, and resuspended in 0.4% trypan blue (Invitrogen). Live and dead cells were counted on a hematocytometer.
(§3) The designation A reflects an IC50 of <1 nM; B reflects an IC50 ranging from 1 to 20 nM; and C is an IC50 of >20 nM. The designation “a” reflects a ratio of RCC4/RCC-VHL+ranging from 1 to ≦10; “b” reflects from 10 to ≦100; “c” reflects a ratio of >100. Compounds I-29 have an IC50 value of ≦10 μM when tested in the above assay.

RCC4 = assay: XTT cell viability assay in RCC4 cells (VHL-deficient renal carcinoma); format: cell-based; conditions: Homo sapiens, 96 h, four days drug exposure
Method: as §1, §2, §3

| Structure (SMILES) | IC50 (RCC4) [nM] | Ratio (IC50 RCC4 Proficient VHL)/ IC50 RCC4 Deficient VHL) [1] | Ratio [1] |
| --- | --- | --- | --- |
| Cc1oc(-c2ccc(C(=O)NCc3cccnc3)cc2)nc1CS(=O)(=O)[C@@H]1CC[C@H](N2CCCC2)C1 [Example 51, 4-[5-Methyl-4-([[(1R,3S)-3-(pyrrolidin-1-yl)cyclopentane]sulfonyl]methyl)-1,3-oxazol-2-yl]-N-(pyridin-3-ylmethyl)benzamide] | < 1 | b (from 10 to ≦100) |  |
| Cc1oc(-c2ccc(C(=O)NCc3cccnc3)cc2)nc1CS(=O)(=O)C1CCN(CC(C)C)CC1 [Example 53, 4-(5-methyl-4-[[1-(2-methylpropyl)piperidine-4-sulfonyl]methyl]-1,3-oxazol-2-yl)-N-(pyridin-3-ylmethyl)benzamide] | < 1 | a (a ratio of RCC4/RCC-VHL+ranging from 1 to ≦10) |  |
| Cc1oc(-c2ccc(C(=O)NCc3cccnc3)cc2)nc1CS(=O)(=O)C1CCN(C2CCCCC2)CC1 [Example 55, 4-[4-[(1-cyclohexylpiperidine-4-sulfonyl)methyl]-5-methyl-1,3-oxazol-2-yl]-N-(pyridin-3-ylmethyl)benzamide] | < 1 | a (a ratio of RCC4/RCC-VHL+ranging from 1 to ≦10) |  |
| O=C(Nc1cccnc1)c1ccc(CNS(=O)(=O)c2ccco2)cc1 [II-8, N-(3-Pyridinyl)-4-{[(2-furanylsulfonyl)amino]methyl}benzamide] | > 20 |  | a (a ratio of RCC4/RCC-VHL+ranging from 1 to ≦10) |

Continued, in another order:

| IC50 (RCC4) [nM] | Structure (SMILES) | Ratio (IC50 RCC4 Proficient VHL)/ IC50 RCC4 Deficient VHL) [1] | Ratio [1] |
| --- | --- | --- | --- |
| > 20 | Cc1oc(-c2ccc(C(=O)NCc3cccnc3)cc2)nc1CS(=O)(=O)[C@@H]1CC[C@H](N)C1 [Example 50, 4-[4-([[(1R,3S)-3-Aminocyclopentane]sulfonyl]methyl)-5-methyl-1,3-oxazol-2-yl]-N-(pyridin-3-ylmethyl)benzamide] | b (from 10 to ≦100) |  |
| < 1 | Cc1oc(-c2ccc(C(=O)NCc3cccnc3)cc2)nc1CS(=O)(=O)[C@@H]1CC[C@H](N2CCCCC2)C1 [Example 52, 4-[5-Methyl-4-([[(1R,3S)-3-(piperidin-1-yl)cyclopentane]sulfonyl]methyl)-1,3-oxazol-2-yl]-N-(pyridin-3-ylmethyl)benzamide] | a (a ratio of RCC4/RCC-VHL+ranging from 1 to ≦10) |  |
| < 1 | Cc1oc(-c2ccc(C(=O)NCc3cccnc3)cc2)nc1CS(=O)(=O)C1CCN(C2CCCC2)CC1 [Example 54, 4-[4-[(1-cyclopentylpiperidine-4-sulfonyl)methyl]-5-methyl-1,3-oxazol-2-yl]-N-(pyridin-3-ylmethyl)benzamide] | b (from 10 to ≦100) |  |
